Data taken from publication PMC2605960 (Biochemical Journal, 2008).
Changes are numbered by the printed parent chain.

Assays:
[1] = target: T1, FLAG-α1b-adrenoceptor TMI-TMIV-eYFP (Mesocricetus auratus, UniProt P18841, L166A/L167A/L65A/V66A); conditions: pKi, [3H]prazosin competition binding
T1 sequence (P18841 1-515 L65A/V66A/L166A/L167A): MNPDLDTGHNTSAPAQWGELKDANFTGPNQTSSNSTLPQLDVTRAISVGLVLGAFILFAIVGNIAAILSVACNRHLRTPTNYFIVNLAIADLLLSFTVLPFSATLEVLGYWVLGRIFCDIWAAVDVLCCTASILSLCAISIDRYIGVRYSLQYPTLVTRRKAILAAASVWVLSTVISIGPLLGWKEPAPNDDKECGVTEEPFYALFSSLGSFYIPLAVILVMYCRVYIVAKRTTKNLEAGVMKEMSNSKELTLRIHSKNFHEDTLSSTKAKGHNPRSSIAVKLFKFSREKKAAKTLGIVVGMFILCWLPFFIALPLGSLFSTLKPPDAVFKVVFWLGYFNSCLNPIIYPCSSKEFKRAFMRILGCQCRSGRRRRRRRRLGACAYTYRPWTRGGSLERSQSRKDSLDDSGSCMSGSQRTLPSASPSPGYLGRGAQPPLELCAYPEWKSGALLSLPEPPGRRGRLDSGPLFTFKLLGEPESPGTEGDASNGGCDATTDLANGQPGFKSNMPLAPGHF

[2] = target: T2, FLAG-α1b-adrenoceptor-eYFP (Mesocricetus auratus, UniProt P18841); format: binding
T2 sequence (P18841 1-515): T1 sequence (P18841 1-515 L65A/V66A/L166A/L167A) with A65L, A66V, A166L, A167L

[3] = target: T1, FLAG-α1b-adrenoceptor TMI-TMIV-eYFP; test: Intact cell anti-FLAG ELISA of cell surface receptor; format: cell-based; conditions: for cell surface delivery of mutant receptor (anti-FLAG ELISA): 10^−5 M of each drug
[4] = target: T3, FLAG-α1b-adrenoceptor TMI-TMIV (Mesocricetus auratus, UniProt P18841, L166A/L167A/L65A/V66A); test: Sequential 3-colour FRET imaging; format: cell-based; conditions: 10^−7 M, 12 h; transiently transfected HEK-293 cells
T3 sequence (P18841 1-515 L65A/V66A/L166A/L167A) 1: T1 sequence (P18841 1-515 L65A/V66A/L166A/L167A)
T3 sequence (P18841 1-515 L65A/V66A/L166A/L167A) 2: T1 sequence (P18841 1-515 L65A/V66A/L166A/L167A)
T3 sequence (P18841 1-515 L65A/V66A/L166A/L167A) 3: T1 sequence (P18841 1-515 L65A/V66A/L166A/L167A)

[5] = target: T1, FLAG-α1b-adrenoceptor TMI-TMIV-eYFP; format: cell-based; conditions: pre-treated with 10^−7 M overnight, then extensively washed; 0.4 nM [3H]prazosin

Compound: CNC[C@H](O)c1ccc(O)c(O)c1 [adrenaline]
- Ki [1]: 63.1 nM
- Ki [2]: 501 nM

Compound: O=C(c1ccc(F)cc1)C1CCN(CCn2c(=O)[nH]c3ccccc3c2=O)CC1 [ketanserin]
- cell surface delivery of mutant receptor (anti-FLAG ELISA) ([3]; overnight treatment): significant cell surface delivery

Compound: COc1cc2nc(N3CCN(C(=O)c4ccco4)CC3)nc(N)c2cc1OC [prazosin]
- sequential FRET signal (eCFP to dsRed2 FRET) [4]: increased
- cell surface delivery of mutant receptor (anti-FLAG ELISA) ([3]; overnight treatment): most effective ligand tested
- concentration of maximum effect on cell surface mutant receptor ([3]; overnight treatment): 10^−7 M
- incubation time for maximum effect on cell surface mutant receptor ([3]; results not shown): 14 to 16 h
- cell surface mutant receptor by intact cell [3H]prazosin binding [5]: marked increases of cell surface FLAG-α1b-adrenoceptor TMI-TMIV-eYFP

Compound: Cc1nc2sccn2c(=O)c1CCN1CCC(=C(c2ccc(F)cc2)c2ccc(F)cc2)CC1 [ritanserin]
- cell surface delivery of mutant receptor (anti-FLAG ELISA) ([3]; overnight treatment): only ketanserin caused significant cell surface delivery
